In general, IC50 refers to the concentration that gives 50% inhibition.

SMILES strings stand for the structures. Starred links: 1 amine or outer side, 2 acyl side, 3 side chain; linkers in the order of their positions; H or OH if unused. Positions of bridges follow the written chain, without caps; N, C: chain ends. Non-standard residues stand in square brackets, D forms with d. Residues, ends and D or L forms follow the SMILES beside them. Phe(3-Me) = Cc1cccc(C[C@H](N)C(=O)O)c1; γGlu = O=C(O)[C@H](CCC(=O)[*:2])N[*:1]; 2Nal = N[C@@H](Cc1ccc2ccccc2c1)C(=O)O; Ahp(2) = CCCCC[C@H](N)C(=O)O; NMeNle = CCCC[C@H](NC)C(=O)O; Tle = CC(C)(C)[C@H](N)C(=O)O; NHexGly = CCCCCCNCC(=O)O; Nle = CCCC[C@H](N)C(=O)O; Aun = NCCCCCCCCCCC(=O)O; AEEA = NCCOCCOCC(=O)O

The assay addresses T1, mouse VISTA (mVISTA) (Mus musculus, UniProt Q9D659).
T1 construct: expressed in transfected cells; host or cells: Human embryonic kidney 293T cells
T1 sequence (Q9D659 33-308): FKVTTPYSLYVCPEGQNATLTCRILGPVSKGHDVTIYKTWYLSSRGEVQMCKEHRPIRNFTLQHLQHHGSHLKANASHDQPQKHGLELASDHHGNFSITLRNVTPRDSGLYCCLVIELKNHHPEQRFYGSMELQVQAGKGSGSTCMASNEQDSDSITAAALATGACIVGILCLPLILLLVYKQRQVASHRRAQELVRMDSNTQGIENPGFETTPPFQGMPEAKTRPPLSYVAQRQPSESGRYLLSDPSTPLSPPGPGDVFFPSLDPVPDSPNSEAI
Nature of the assay: Cell-Based Binding High-Content Assay For mVISTA (HC CBA mVISTA). Conditions: read-out: HC CBA mVISTA IC50. The procedure, abridged: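 293T cells expressing mouse VISTA, with compounds added either after seeding ("no wash") or before seeding and then washed out after 1 h. Biotinylated peptide 2 nM for 30 min at room temperature, then detection with Alexa 647–streptavidin. After fixation with Hoechst stain, plates were high-content imaged; IC50 from four-parameter logistic fit.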

As to `CCCCCCN1CC(=O)N[C@@H](Cc2ccc(O)cc2)C(=O)N[C@@H](CC(C)C)C(=O)N[C@@H](CC(N)=O)C(=O)N[C@@H](CCCNC(=N)N)C(=O)N[C@@H](CC(C)C)C(=O)N[C@@H](CCCCC)C(=O)N2CCC[C@H]2C(=O)N[C@@H](C(C)C)C(=O)N[C@@H](C(C)C)C(=O)N[C@H](C(=O)NCCOCCOCC(=O)N[C@@H](CCC(=O)NCCOCCOCC(=O)NCCCCCCCCCCC(=O)O)C(=O)O)CSCC(=O)N[C@@H](Cc2ccccc2)C(=O)N[C@@H](Cc2ccc(O)cc2)C(=O)N[C@@H](CC(=O)O)C1=O` [compound 2217] ({CH2CO}-FYD[NHexGly]YLNRL[Ahp(2)]PVVC[AEEA][γGlu][AEEA][Aun]-OH; thioether N-14), the IC50 came out at 13.1 nM.

`CCCCCCN1CC(=O)N[C@@H](Cc2ccc(O)cc2)C(=O)N[C@@H](CCCC)C(=O)N[C@@H](CC(N)=O)C(=O)N[C@@H](CCCNC(=N)N)C(=O)N(C)[C@@H](CCCC)C(=O)N[C@@H](CCCCC)C(=O)N2CCC[C@H]2C(=O)N[C@@H](C(C)C)C(=O)N[C@@H](CC(=O)O)C(=O)N[C@H](C(=O)NCCOCCOCC(=O)N[C@@H](CCC(=O)NCCOCCOCC(=O)NCCCCCCCCCCC(=O)O)C(=O)O)CSCC(=O)N[C@@H](Cc2ccccc2)C(=O)N[C@@H](Cc2c[nH]c3ccccc23)C(=O)N[C@@H](CC(=O)O)C1=O` [compound 2218] ({CH2CO}-FWD[NHexGly]Y[Nle]NR[NMeNle][Ahp(2)]PVDC[AEEA][γGlu][AEEA][Aun]-OH; thioether N-14): the IC50 was determined as 11.5 nM.

Consider `CCCCCCN1CC(=O)N[C@@H](Cc2ccc(O)cc2)C(=O)N[C@@H](C(C)C)C(=O)NCC(=O)N[C@@H](CCCNC(=N)N)C(=O)N[C@@H](CC(C)C)C(=O)N[C@@H](CCCCC)C(=O)N2CCC[C@H]2C(=O)N[C@@H](C(C)C)C(=O)N[C@@H](CC(=O)O)C(=O)N[C@H](C(=O)NCCOCCOCC(=O)N[C@@H](CCC(=O)NCCOCCOCC(=O)NCCCCCCCCCCC(=O)O)C(=O)O)CSCC(=O)N[C@@H](Cc2ccc3ccccc3c2)C(=O)N[C@@H](Cc2ccc(O)cc2)C(=O)N[C@@H](CC(=O)O)C1=O` [compound 2219] ({CH2CO}-[2Nal]YD[NHexGly]YVGRL[Ahp(2)]PVDC[AEEA][γGlu][AEEA][Aun]-OH; thioether N-14), for which the IC50 came to 24 nM.

In the case of `CCCCCCN1CC(=O)N[C@@H](Cc2ccc(O)cc2)C(=O)N[C@@H](CC(C)C)C(=O)N[C@@H](CC(N)=O)C(=O)N[C@@H](CCCNC(=N)N)C(=O)N[C@@H](CC(C)C)C(=O)N[C@@H](CCCCC)C(=O)N2CCC[C@H]2C(=O)N[C@@H](C(C)C)C(=O)N[C@@H](C(C)C)C(=O)N[C@H](C(=O)NCCOCCOCC(=O)N[C@@H](CCC(=O)NCCOCCOCC(=O)NCCCCCCCCCCC(=O)O)C(=O)O)CSCC(=O)N[C@@H](Cc2ccccc2)C(=O)N[C@@H](Cc2cccc(C)c2)C(=O)N[C@@H](CC(=O)O)C1=O` [compound 2221] ({CH2CO}-F[Phe(3-Me)]D[NHexGly]YLNRL[Ahp(2)]PVVC[AEEA][γGlu][AEEA][Aun]-OH; thioether N-14), the IC50 was determined as 33.5 nM.

With `CCCCCCN1CC(=O)N[C@@H](Cc2ccc(O)cc2)C(=O)N[C@@H](CCCC)C(=O)N[C@@H](CC(N)=O)C(=O)N[C@@H](CCCNC(=N)N)C(=O)N[C@@H](CC(C)C)C(=O)N[C@@H](CCCCC)C(=O)N2CCC[C@H]2C(=O)N[C@@H](C(C)C)C(=O)N[C@@H](CC(=O)O)C(=O)N[C@H](C(=O)NCCOCCOCC(=O)N[C@@H](CCC(=O)NCCOCCOCC(=O)NCCCCCCCCCCC(=O)O)C(=O)O)CSCC(=O)N[C@@H](Cc2cccc(C)c2)C(=O)N[C@@H](Cc2c[nH]c3ccccc23)C(=O)N[C@@H](CC(=O)O)C1=O` [compound 2222] ({CH2CO}-[Phe(3-Me)]WD[NHexGly]Y[Nle]NRL[Ahp(2)]PVDC[AEEA][γGlu][AEEA][Aun]-OH; thioether N-14), the IC50 was 28.7 nM.

Turning to `CCCCCCN1CC(=O)N[C@@H](Cc2ccc(O)cc2)C(=O)N[C@@H](CCCC)C(=O)N[C@@H](CC(N)=O)C(=O)N[C@@H](CCCNC(=N)N)C(=O)N[C@@H](CC(C)C)C(=O)N[C@@H](CCCCC)C(=O)N2CCC[C@H]2C(=O)N[C@@H](C(C)C)C(=O)N[C@@H](CO)C(=O)N[C@H](C(=O)NCCOCCOCC(=O)N[C@@H](CCC(=O)NCCOCCOCC(=O)NCCCCCCCCCCC(=O)O)C(=O)O)CSCC(=O)N[C@@H](Cc2ccc3ccccc3c2)C(=O)N[C@@H](Cc2ccc(O)cc2)C(=O)N[C@@H](CC(=O)O)C1=O` [compound 2223] ({CH2CO}-[2Nal]YD[NHexGly]Y[Nle]NRL[Ahp(2)]PVSC[AEEA][γGlu][AEEA][Aun]-OH; thioether N-14), the IC50 was found to be 12.4 nM.

Turning to `CCCCCCN1CC(=O)N[C@@H](Cc2ccc(O)cc2)C(=O)N[C@@H](CCCC)C(=O)N[C@@H](CC(N)=O)C(=O)N[C@@H](CCCNC(=N)N)C(=O)N(C)[C@@H](CCCC)C(=O)N[C@@H](CCCCC)C(=O)N2CCC[C@H]2C(=O)N[C@@H](C(C)(C)C)C(=O)N[C@@H](CO)C(=O)N[C@H](C(=O)NCCOCCOCC(=O)N[C@@H](CCC(=O)NCCOCCOCC(=O)NCCCCCCCCCCC(=O)O)C(=O)O)CSCC(=O)N[C@@H](Cc2ccccc2)C(=O)N[C@@H](Cc2ccc(O)cc2)C(=O)N[C@@H](CC(=O)O)C1=O` [compound 2224] ({CH2CO}-FYD[NHexGly]Y[Nle]NR[NMeNle][Ahp(2)]P[Tle]SC[AEEA][γGlu][AEEA][Aun]-OH; thioether N-14), the IC50 was determined as 18.6 nM.

Take `CCCCCCN1CC(=O)N[C@@H](Cc2ccc(O)cc2)C(=O)N[C@@H](CCCC)C(=O)N[C@@H](CC(N)=O)C(=O)N[C@@H](CCCNC(=N)N)C(=O)N(C)[C@@H](CCCC)C(=O)N[C@@H](CCCCC)C(=O)N2CCC[C@H]2C(=O)N[C@@H](C(C)(C)C)C(=O)N[C@@H](CO)C(=O)N[C@H](C(=O)NCCOCCOCC(=O)N[C@@H](CCC(=O)NCCOCCOCC(=O)NCCCCCCCCCCC(=O)O)C(=O)O)CSCC(=O)N[C@@H](Cc2ccccc2)C(=O)N[C@@H](Cc2cccc(C)c2)C(=O)N[C@@H](CC(=O)O)C1=O` [compound 2225] ({CH2CO}-F[Phe(3-Me)]D[NHexGly]Y[Nle]NR[NMeNle][Ahp(2)]P[Tle]SC[AEEA][γGlu][AEEA][Aun]-OH; thioether N-14): the IC50 came to 30.8 nM.

As to `CCCCCCN1CC(=O)N[C@@H](Cc2ccc(O)cc2)C(=O)N[C@@H](CCCC)C(=O)N[C@@H](CC(N)=O)C(=O)N[C@@H](CCCNC(=N)N)C(=O)N(C)[C@@H](CCCC)C(=O)N[C@@H](CCCCC)C(=O)N2CCC[C@H]2C(=O)N[C@@H](C(C)(C)C)C(=O)N[C@@H](CO)C(=O)N[C@H](C(=O)NCCOCCOCC(=O)N[C@@H](CCC(=O)NCCOCCOCC(=O)NCCCCCCCCCCC(=O)O)C(=O)O)CSCC(=O)N[C@@H](Cc2ccccc2)C(=O)N[C@@H](Cc2c[nH]c3ccccc23)C(=O)N[C@@H](CC(=O)O)C1=O` [compound 2226] ({CH2CO}-FWD[NHexGly]Y[Nle]NR[NMeNle][Ahp(2)]P[Tle]SC[AEEA][γGlu][AEEA][Aun]-OH; thioether N-14), the IC50 amounted to 24.4 nM.

Turning to `CCCCCCN1CC(=O)N[C@@H](Cc2ccc(O)cc2)C(=O)N[C@@H](CCCC)C(=O)N[C@@H](CC(N)=O)C(=O)N[C@@H](CCCNC(=N)N)C(=O)N(C)[C@@H](CCCC)C(=O)N[C@@H](CCCCC)C(=O)N2CCC[C@H]2C(=O)N[C@@H](C(C)(C)C)C(=O)N[C@@H](CO)C(=O)N[C@H](C(=O)NCCOCCOCC(=O)N[C@@H](CCC(=O)NCCOCCOCC(=O)NCCCCCCCCCCC(=O)O)C(=O)O)CSCC(=O)N[C@@H](Cc2ccc3ccccc3c2)C(=O)N[C@@H](Cc2ccc(O)cc2)C(=O)N[C@@H](CC(=O)O)C1=O` [compound 2227] ({CH2CO}-[2Nal]YD[NHexGly]Y[Nle]NR[NMeNle][Ahp(2)]P[Tle]SC[AEEA][γGlu][AEEA][Aun]-OH; thioether N-14), the IC50 was determined as 41.5 nM.

The record behind these values is patent publication US20240218022A1, “ANTI-VISTA MACROCYCLIC PEPTIDES AND COMPOSITIONS” (BRISTOL-MYERS SQUIBB COMPANY, priority 2022, published 2024).
